Legend:
[1] = tested on: 786-O subcutaneous xenografts; test: In vivo 786-O tumor growth model; details: female nude mice, 30 mg/kg p.o. qd, 21 days
Description: Female nude mice bearing 786-O subcutaneous xenografts were treated with Example 31 at 30 mg/kg p.o. qd or vehicle control. Treatments started 34 days post tumor inoculation and lasted 21 days. Values are provided as mean±SEM with a sample size of n=6 mice per group. The initial tumor volume at day 0 was approximately 260 mm^3.
Experiments were performed in female nude Crl:NU(NCr)-Foxnlnu-Homozygous mice (Charles River, Germany). Animals were 6-9 weeks of age at time of application of the compound. Animals were housed under Optimized Hygienic Conditions in Makrolon type III cages (max. 5 animals per cage) with free access to food and water. […]
Cell line and cell culture: 786-O and SKRC-01 cells were grown in 500 ml RPMI1640 Medium+5 ml L-Glutamine+50 ml FCS+5 ml Sodium Pyruvate+5 ml HEPES and incubated at 37° C. in a 5% CO2 humidified atmosphere. Cells were harvested with trypsin-EDTA, re-suspended in culture medium (with additives) and counted with a Casy® system. […]
Evaluation of antitumor activity: Tumor volumes were measured with calipers and determined according to the formula: length×diameter^2×π/6. In addition to presenting changes of tumor volumes over the course of treatments, antitumor activity is expressed as T/C % (mean change of tumor volume of treated animals/mean change of tumor volume of control animals)×100. […]

[2] = biological target: HIF2α PAS-B domain (236-350, biotinylated on the N-terminus) (Homo sapiens (Human), UniProt Q99814); test: In vitro SPA with the PAS-B domain of HIF2α (competition binding with radio-ligand); details: versus corresponding enantiomer
Sequence of HIF2α PAS-B domain (236-350, biotinylated on the N-terminus) (Q99814 236-350): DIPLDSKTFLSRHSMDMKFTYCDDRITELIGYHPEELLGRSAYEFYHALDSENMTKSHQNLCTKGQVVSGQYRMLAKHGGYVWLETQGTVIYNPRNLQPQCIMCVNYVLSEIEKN
Description: The assay buffer contained 50 mM Tris-HCl pH7 (Sigma), 20 mM NaCl (Fluka), 0.02% BSA (Sigma), 0.005% Triton X-100 (Pierce) and 1 mM DTT (Fluka). After a 30 min incubation period, 5 μL Streptavidin PVT SPA Beads (Perkin Elmer) at 1.2 mg/mL, diluted in the buffer, were added.

SMILES	anti-tumor activity [1]	IC50 in the Hif2α SPA assay, fold lower than for the corresponding (R)-enantiomer [2]
FC(F)OC1=CC(C(F)(F)F)=CN2C[C@@]3(CCC(F)(F)c4c3ccnc4Cl)N=C12 [Example 31, (S)-1′-chloro-8-(difluoromethoxy)-8′,8′-difluoro-6-(trifluoromethyl)-7′,8′-dihydro-3H,6′H-spiro[imidazo[1,2-a]pyridine-2,5′-isoquinoline]]	demonstrated	
FC(F)OC1=CC(C(F)(F)F)=CN2C[C@@]3(CCOc4cc(C(F)(F)F)ccc43)N=C12 [Example 44, (S)-8′-(difluoromethoxy)-6′,7-bis(trifluoromethyl)-3′H-spiro[chroman-4,2′-imidazo[1,2-a]pyridine]]		greater than 700 fold
